In the assay the target is Cytochrome P450 2C9 (Homo sapiens, UniProt P11712). Put plainly: Binding affinity towards cytochrome P450 2C9. In kind it is ADME.
Sequence of Cytochrome P450 2C9 (P11712 whole entry): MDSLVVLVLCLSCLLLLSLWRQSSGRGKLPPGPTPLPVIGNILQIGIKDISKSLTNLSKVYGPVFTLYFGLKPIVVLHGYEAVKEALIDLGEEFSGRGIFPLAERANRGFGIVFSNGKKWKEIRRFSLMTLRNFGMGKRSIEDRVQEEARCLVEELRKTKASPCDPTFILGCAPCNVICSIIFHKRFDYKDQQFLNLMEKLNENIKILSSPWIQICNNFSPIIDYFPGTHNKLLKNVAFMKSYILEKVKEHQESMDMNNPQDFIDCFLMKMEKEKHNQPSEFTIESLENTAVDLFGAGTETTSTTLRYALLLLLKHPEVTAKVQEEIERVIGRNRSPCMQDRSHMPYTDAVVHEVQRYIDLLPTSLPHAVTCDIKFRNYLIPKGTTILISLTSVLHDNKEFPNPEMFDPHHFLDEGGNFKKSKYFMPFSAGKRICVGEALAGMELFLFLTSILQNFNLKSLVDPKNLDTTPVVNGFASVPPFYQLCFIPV
In the case of `COCCCOc1ccnc(C[S@+]([O-])c2nc3ccccc3[nH]2)c1C`, the affinity corresponds to a Ki of 37 µM.
The molecule `O=C1NC(=O)C2(N1)c1ccccc1-c1ccccc12` yielded a Ki of 125 µM.
With `CC(=O)C[C@H](c1ccccc1)C1C(=O)Oc2ccccc2C1O` (some centres undefined), the Ki came out at 13.6 µM.
`Nc1c(Oc2ccc(Cl)cc2Cl)ccc(Cl)c1S(=O)(=O)O`: the Ki came out at 20 µM.
Molecule `Clc1ccc(CO[C@H](Cn2ccnc2)c2ccc(Cl)cc2Cl)c(Cl)c1` registered a Ki of 6 µM.
Next, `COc1ccnc(C[S@@+]([O-])c2nc3cc(OC(F)F)ccc3[nH]2)c1OC`: 145 µM.
With `COC(=O)c1ccc2nc([S@+]([O-])Cc3nccc(OC)c3OC)[nH]c2c1`, the Ki was determined as 140 µM.
Regarding `[O-][S@@+](Cc1cc(OCC2CC2)ccn1)c1nc2ccc(F)cc2[nH]1`, the Ki came out at 60 µM.
The molecule `COC(=O)c1ccc2[nH]c([S@@+]([O-])Cc3nccc(OC)c3OC)nc2c1` had a Ki of 64 µM.
`[O-][S@+](Cc1cc(OCC2CC2)ccn1)c1nc2cc(F)ccc2[nH]1` had a Ki of 93 µM.
`CO[C@@]1(C)C[C@H](c2ccccc2)c2c(c3ccccc3oc2=O)O1` gave a Ki of 16 µM.
As for `COc1ccnc(C[S@+]([O-])c2nc3cc(OC(F)F)ccc3[nH]2)c1OC`, the Ki came to 64 µM.
Next, `Cc1nn(C)c(C)c1NC(=O)c1ccccc1NS(=O)(=O)c1cc(Cl)sc1Cl`: 17 µM.
Next, `CO[C@]1(C)C[C@H](c2ccccc2)C2C(=O)Oc3ccccc3C2O1` (some centres undefined): 16 µM; `Clc1ccc(CO[C@@H](Cn2ccnc2)c2ccc(Cl)cc2Cl)c(Cl)c1` [(R)-MICONAZOLE]: 6 µM; `COCCCOc1ccnc(C[S@@+]([O-])c2nc3ccccc3[nH]2)c1C` [DEXRABEPRAZOLE]: 36 µM.
For the molecule `COCCCC/C(=N\OCCN)c1ccc(C(F)(F)F)cc1` [FLUVOXAMINE], the affinity corresponds to a Ki of 8.5 µM.
Next, `O=c1c(O)c(-c2ccc(O)cc2)oc2cc(O)cc(O)c12` [KAEMPFEROL]: 6 µM; `COc1ccc2nc(S(=O)(=O)Cc3ncc(C)c(OC)c3C)[nH]c2c1` [OMEPRAZOLE SULFONE]: 35 µM.
For the molecule `COc1ccc2[nH]c([S+]([O-])Cc3ncc(C)c(OC)c3C)nc2c1` (centres undefined) [OMEPRAZOLE], the Ki stood at 45 µM.
As for `CCCCC1C(=O)N(c2ccccc2)N(c2ccccc2)C1=O` [PHENYLBUTAZONE], the Ki was 19 µM.
Next, `CC(=O)[C@H]1CC[C@H]2[C@@H]3CCC4=CC(=O)CC[C@]4(C)[C@H]3CC[C@]12C` [PROGESTERONE]: 5.5 µM; `c1ccc2[nH]c(-c3cscn3)nc2c1` [THIABENDAZOLE]: 245 µM.
In turn, `COc1cc(C(=O)NS(=O)(=O)c2ccccc2C)ccc1Cc1cn(C)c2ccc(NC(=O)OC3CCCC3)cc12` [ZAFIRLUKAST] registered a Ki of 2.5 µM.

A word on the Ki: it is a measure of affinity in units of concentration, obtained from inhibition or displacement.
